Data from patent publication US8461085B2, “Bioherbicide from Festuca spp” (Cornell Research Foundation, Inc., priority 2005, dated 2013).
pIC50: −log10 of the molar value. Read-outs that look alike come from different tables or passages of the source.

Key:
[1] = tested on: selected monocot and dicot plants; assay: General phytotoxicity Petri dish bioassay, weed and crop species taken together; type: in vivo
Experimental: Using the Petri dish bioassay described above, various weed and crop species were tested for their susceptibility to m-tyrosine. Concentrations evaluated were 10, 20, 40, 80, 160, and 320 μM m-tyrosine dissolved in water.
(§1) m-Tyrosine activity was bioassayed using selected weed and crop species. Growth inhibition as measured by radicle elongation was evaluated in dandelion (Taraxacum officinale Weber in Weggers.), large crabgrass (Digitaria sanguinalis (L.) Scop.), velvetleaf (Abutilon theophrasti Medicus), black medic (Medicago lupulina L.), curly cress (Lepidium sativum L.), bamyardgrass (Echinochloa crus-galli.(L.) Beauv.), lettuce (Lactuca sativa L.), purslane (Portulaca oleracea L.), annual bluegrass (Poa annua L.), birdsfoot trefoil (Lotus corniculatus L.), broadleaf plantain (Plantago major L.), mouseear chickweed (Cerastium vulgatum L.), common chickweed (Stellaria media (L.) Vill.), white clover (Trifolium repens L.), wheat (Triticum aestivum L.), tomato (Lycopersicon esculentum var. esculentum P. Mill.), tobacco (Nicotiana tobacum L.), and sorghum sudangrass hybrid (Sorghum bicolor x Sudanese). Weeds were purchased from HerbiSeeds, England, tomato seeds were purchased from Agway (Ithaca N.Y.), and wheat, sudex and tobacco where donated by Pioneer Seeds (Johnson, Iowa). Seeds were sterilized by a water: ethanol mixture (1:1) for one minute and rinsed three times thoroughly in distilled water. The simple phytotoxicity bioassay utilized consisted of the evaluation of radicle length of ten sterilized seeds of each weed/crop deposited on a filter paper containing the appropriate m-tyrosine test solution in 4.5 cm Petri dishes. The amino acid analog, m-tyrosine was purchased from Sigma and formulated at concentrations of 0, 20, 40, 80, 160 and 320 μM by initially dissolving in aqueous solutions. A 1000 μL aliquot of the appropriate test solution was added to individual Petri dishes lined with Whatman No. 1 filter paper. Control dishes received 1000 μL of water. After seeds were placed on moistened filter paper, Petri dishes were transferred to a controlled environment with a light regime of 45,33 photon m^−2 s^−1 and maintained at an average temperature of 25° C. for 7 days. At the end of the incubation period, radicle length was measured. Treatments were replicated three times, and the experiment for each plant species tested was repeated three times.

[2] = tested on: lettuce seedlings (Lactuca sativa L.); assay: Soil bioassay, lettuce root growth; type: in vivo; details: for pIC50: Lactuca sativa; for Root Length of Lettuce Seedlings: m-tyrosine at 160 μM
crabgrass seedlings = assay: Soil bioassay, crabgrass root growth; type: in vivo, Digitaria sanguinalis L.; details: Digitaria sanguinalis, soil media, read-out: concentration reducing root elongation by 50%
Description: Large crabgrass was also included in the first two experiments because it is a common weed in turf settings. Prior experiments have shown that m-tyrosine is a potent inhibitor of root growth of large crabgrass and lettuce (Bertin et al., “Laboratory Assessment of the Allelopathic Effects of Fine Leaf Fescues,” J. Chem. Ecol. 29:1919-1937 (2003), which is hereby incorporated by reference in its entirety). Soil and MetroMix, as described as previously, were placed in 9-cm petri dishes, and 15 lettuce or crabgrass seeds were sown on the soil surface. Each experiment was replicated three times and was repeated over time.

Tomato = assay: Weed and crop Petri dish bioassay, radicle length; type: in vivo, Lycopersicon esculentum var. esculentum P. Mill.
Experimental: as §1, with “[…].),” for “Weggers.),”, “The amino acid analog, m-tyrosine was purchased from Sigma and formulated at concentrations of 0, 20, 40, 80, 160 and 320 μM by initially dissolving in aqueous solutions.” left out, “m^-2 s^-1” for “m^−2 s^−1”

Arabidopsis = assay: Weed and crop Petri dish bioassay, radicle length; type: in vivo, Arabidopsis thaliana L.
Broadleaf Plantain = assay: Weed and crop Petri dish bioassay, radicle length; type: in vivo, Plantago major L.
Experimental: (§2) m-Tyrosine activity was bioassayed using selected weed and crop species. Growth inhibition as measured by radicle elongation was evaluated in dandelion (Taraxacum officinale Weber in […].), large crabgrass (Digitaria sanguinalis (L.) Scop.), velvetleaf (Abutilon theophrasti Medicus), black medic (Medicago lupulina L.), curly cress (Lepidium sativum L.), bamyardgrass (Echinochloa crus-galli.(L.) Beauv.), lettuce (Lactuca sativa L.), purslane (Portulaca oleracea L.), annual bluegrass (Poa annua L.), birdsfoot trefoil (Lotus corniculatus L.), broadleaf plantain (Plantago major L.), mouseear chickweed (Cerastium vulgatum L.), common chickweed (Stellaria media (L.) Vill.), white clover (Trifolium repens L.), wheat (Triticum aestivum L.), tomato (Lycopersicon esculentum var. esculentum P. Mill.), tobacco (Nicotiana tobacum L.), and sorghum sudangrass hybrid (Sorghum bicolor x Sudanese). Weeds were purchased from HerbiSeeds, England, tomato seeds were purchased from Agway (Ithaca N.Y.), and wheat, sudex and tobacco where donated by Pioneer Seeds (Johnson, Iowa). Seeds were sterilized by a water: ethanol mixture (1:1) for one minute and rinsed three times thoroughly in distilled water. […] At the end of the incubation period, radicle length was measured. […]

Black Medic = assay: Weed and crop Petri dish bioassay, radicle length; type: in vivo, Medicago lupulina L.
Experimental: as §2

Common Chickweed = assay: Weed and crop Petri dish bioassay, radicle length; type: in vivo, Stellaria media (L.) Vill.
Experimental: as §2

Barnyard grass = assay: Weed and crop Petri dish bioassay, radicle length; type: in vivo, Echinochloa crus-galli (L.) Beauv.
Experimental: as §2

[3] = tested on: Arabidopsis thaliana seedlings; assay: Arabidopsis root growth inhibition in growth media; type: in vivo; details: Arabidopsis thaliana; applied to the growth media; mixture of D and L m-tyrosine; read-out: concentration reducing root length of Arabidopsis by 50%

## N[C@@H](Cc1cccc(O)c1)C(=O)O [m-tyrosine, 3-hydroxyphenylalanine]
[1]; in vivo
  effect on shoot elongation: inhibitory to shoot elongation
[1]; numerous seedling indicators
  effect on seed germination: did not affect seed germination per se
[1]; range over all plants exposed, read-out: concentration required to observe 50% inhibition of radicle elongation
  pIC50: 3.59 to 5.00
[1]; range over other species evaluated (apart from mouseear chickweed), read-out: concentration for 50% inhibition of radicle elongation
  pIC50: 3.60 to 4.85
[2]; in soil, read-out: I50, 50% inhibition of root growth of lettuce
  pIC50: ~4.52
[2]; soil media, lettuce, read-out: concentration reducing root elongation by 50%
  pIC50: 2.40
[2]; ammonium nitrate 0 mM
  Root Length of Lettuce Seedlings: 2.07 (0.02) cm
[2]; ammonium nitrate 0.125 mM
  Root Length of Lettuce Seedlings: 3.56 (0.07) cm
[2]; ammonium nitrate 0.25 mM
  Root Length of Lettuce Seedlings: 4.82 (0.1) cm
[2]; ammonium nitrate 0.5 mM
  Root Length of Lettuce Seedlings: 4.8 (0.09) cm
[2]; ammonium nitrate 1.0 mM
  Root Length of Lettuce Seedlings: 4.8 (0.12) cm
[2]; with 1 mM NH4NO3 in comparison to m-tyrosine without soil NH4NO3
  reduction of the inhibition of radicle elongation: approximately 25%
Crabgrass seedlings
  pIC50: 2.40
Tomato
  I10: 35 µM
  I100: 160 µM
Tomato; Solanum lycopersicum, read-out: I50
  pIC50: 4.12
Arabidopsis
  I10: 6 µM
  I100: 50 µM
Arabidopsis; Arabidopsis thaliana, read-out: I50
  pIC50: 4.82
Broadleaf Plantain
  I10: 30 µM
Broadleaf Plantain; Plantago major, read-out: I50
  pIC50: 4.14
Black Medic
  I10: 40 µM
Black Medic; Medicago lupulina, read-out: I50
  pIC50: 4.08
Common Chickweed
  I10: 80 µM
  I100: 320 µM
Barnyard grass
  I10: 80 µM
Barnyard grass; Echinochloa crus-galli, read-out: I50
  pIC50: 3.59
[3]
  pIC50: 5.70
